Like-named read-outs stand apart in the source and are kept apart here.
Tests used:
[1] = Ex vivo bioavailability assay, drug administered i.v. and p.o.; settings: male rats, p.o. vs i.v., drug in plasma extrapolated from thrombin inhibition
Procedure: Bioavailability was determined by an ex vivo assay which incorporated hydrolysis rates from drug administered both i.v. and p.o. In this assay male rats were prepared as described above with a teflon tube implanted in their femoral artery.
A standard curve was generated by adding of drug or vehicle (100 μL) to whole blood (900 μL) followed by incubating (5 min) and centrifuging to obtain plasma. The percentage of thrombin inhibition was calculated by comparing the V0 of the vehicle to that of the drug treated samples. Datum from several runs were normalized with a statistical package (SAS) to generate a standard curve.
The percentage of thrombin inhibition in the treated animals was calculated by comparing the V0 prior to treatment with the V0 obtained from samples collected after treatment. The percent inhibition was applied to the standard curve (generated above) using the statistical package (SAS) and the quantity of drug in the sample was extrapolated.
Bioavailability (Bioavail.) was calculated from the plots of the extrapolated drug in sample vs. time for both i.v. and p.o. administration using the following equation:
%Bioavail.=(i.v. dose administered/p.o. dose administered)×(area
under p.o. curve/area under curve i.v.)

[2] = rat, in vivo, iv
Procedure: (§1) An ex vivo assay was conducted to determine the duration of action of the compounds of Formula I. For this i.v. assay male rats (Long Evans, 350-500 g) were implanted with a teflon cannulae via the femoral artery while under anesthesia (pentobarbital i.p., 35 mg/kg). […] The animals were allowed to recover for at least 24 h after the surgical procedure.
(§2) The test compound was dispersed in water and delivered to the animal (0.25 mL) via the femoral vein. […] A plasma sample was obtained by centrifuging the blood at 10,000 rpm for 5 min. This sample is analyzed for thrombin inhibition using the chromogenic assay, described below.
(§3) Datum was collected over a 30 min period and the initial rate of substrate hydrolysis (V0 (mOD/min)) was calculated with an analysis program (Softmax, Molecular Devices).
(§4) The time to half plasma elimination (t 1/2) was calculated from the slope of V0 vs. time, using the following equation: t 1/2=-1.6 slope.

[3] = Ex vivo assay for duration of action after i.v. dosing (time to half plasma elimination); settings: male rats, from slope of V0 vs. time of plasma thrombin inhibition
Procedure: as §1, §2, §3, §4

| SMILES | Bioavail. [1] [%] | t1/2 (time to half plasma elimination) [2] [min] | t1/2 (time to half plasma elimination) [3] [min] |
| --- | --- | --- | --- |
| CN[C@H](Cc1ccccc1)C(=O)N1CCC[C@H]1C(=O)N[C@@H](CCCNC(=N)N)C(=O)c1nc2ccccc2s1 [Compound 1, N-METHYL-D-PHENYLALANYL-N-[4-[(AMINOIMINOMETHYL)AMINO]-1S-[(BENXOTHIAZOL-2- YL)CARBONYL]BUTYL]-L-PROLINAMIDE] | 1.2 | 19 |  |
| CNC(Cc1ccccc1)C(=O)N1CCCC1C(=O)NC(CCCNC(=N)N)C(=O)c1nccs1 (centres unmarked) [Compound 4] |  | 16 |  |
| CN[C@H](Cc1ccccc1)C(=O)N1CCC[C@H]1C(=O)N[C@@H](CCCNC(=N)N)C(=O)c1nc2ccc(C(=O)OC)cc2s1 [Compound 12] |  | 43 |  |
| CN[C@H](Cc1ccccc1)C(=O)N1CCC[C@H]1C(=O)N[C@@H](CCCNC(=N)N)C(=O)c1nc2ccc(C(=O)O)cc2s1 [Compound 13] |  | 25 |  |
| CN[C@H](Cc1ccccc1)C(=O)N1CCC[C@H]1C(=O)N[C@@H](CCCNC(=N)N)C(=O)c1nc2ccc(CO)cc2s1 [Compound 15] |  | 16 |  |
| CN[C@H](Cc1ccccc1)C(=O)N1CCC[C@H]1C(=O)N[C@@H](CCCNC(=N)N)C(=O)c1nc2ccc(F)cc2s1 [Compound 17] |  | 8 |  |
| CCOC(=O)c1csc(C(=O)[C@H](CCCNC(=N)N)NC(=O)[C@@H]2CCCN2C(=O)[C@@H](Cc2ccccc2)NC)n1 [Compound 19] |  | 14 |  |
| CNC(Cc1ccccc1)C(=O)N1CCCC1C(=O)NC(CCCNC(=N)N)C(=O)c1nc2ccccc2[nH]1 (centres unmarked) [Compound 21] |  | 5 |  |
| CN[C@H](Cc1ccccc1)C(=O)N1CCC[C@H]1C(=O)N[C@@H](CCCNC(=N)N)C(=O)c1nc2ccc(O)cc2s1 [Compound 25] |  |  | 14 |
| CN[C@H](CC1CCCCC1)C(=O)N1CCC[C@H]1C(=O)N[C@@H](CCCNC(=N)N)C(=O)c1nc2ccccc2s1 [Compound 29, N-METHYL-D-CYCLOHEXYLALANYL-N-[4-[(AMINOIMINOMETHYL)AMINO]-1S-[(BENXOTHIAZOL-2-YL)CARBONYL]BUTYL]-L-PROLINAMIDE] |  | 14 |  |
| CN[C@H](Cc1c(F)c(F)c(F)c(F)c1F)C(=O)N1CCC[C@H]1C(=O)N[C@@H](CCCNC(=N)N)C(=O)c1nc2ccccc2s1 [Compound 30] |  | 6 |  |
| CN[C@H](Cc1ccc(F)cc1)C(=O)N1CCC[C@H]1C(=O)N[C@@H](CCCNC(=N)N)C(=O)c1nc2ccccc2s1 [Compound 32, N-METHYL-D-(4-FLUOROPHENYL)ALANYL-N-[4-[(AMINOIMINOMETHYL)AMINO]-1S-[(BENXOTHIAZOL-2-YL)CARBONYL]BUTYL]-L-PROLINAMIDE] |  | 19 |  |
| CNC(C(=O)N1CCCC1C(=O)NC(CCCNC(=N)N)C(=O)c1nc2ccccc2s1)c1ccccc1 [Compound 33, N-METHYL-D-PHENYLGLYCYL-N-[4-[(AMINOIMINOMETHYL)AMINO]-1S-[(BENXOTHIAZOL-2- YL)CARBONYL]BUTYL]-L-PROLINAMIDE] |  | 18 |  |
| CNC(C(=O)N1CCC[C@H]1C(=O)N[C@@H](CCCNC(=N)N)C(=O)c1nc2ccccc2s1)c1ccccc1 (some centres unmarked) [Compound 34] |  |  | 26 |
| CC(=O)N[C@H](Cc1ccccc1)C(=O)N1CCC[C@H]1C(=O)N[C@@H](CCCNC(=N)N)C(=O)c1nc2ccccc2s1.O=C(O)C(F)(F)F [Compound 35] |  | 11 |  |
| CN[C@@H](C(=O)N1CCC[C@H]1C(=O)N[C@@H](CCCNC(=N)N)C(=O)c1nc2ccccc2s1)C1CCCCC1 [Compound 37, N-METHYL-D-CYCLOHEXYLGLYCYL-N-[4-[(AMINOIMINOMETHYL)AMINO]-1S-[(BENXOTHIAZOL-2-YL)CARBONYL]BUTYL]-L-PROLINAMIDE] |  | 42 |  |
| CN[C@H](Cc1ccccc1)C(=O)N1CCC[C@H]1C(=O)N[C@@H](CCCNC(=N)N)C(=O)c1nc2c(s1)CCCC2 [Compound 51] |  | 17 |  |
| CN[C@H](Cc1ccccc1)C(=O)N1CCC[C@H]1C(=O)N[C@@H](CCCNC(=N)N)C(=O)c1nc2ccc3ccccc3c2s1 [Compound 52] |  | 5 |  |
| CN[C@H](Cc1ccccc1)C(=O)N1CCC[C@H]1C(=O)N[C@@H](CCCNC(=N)N)C(=O)c1nc(C(=O)O)cs1 [Compound 54] |  | 15 |  |
